Results published in PubChem BioAssay (NCI).
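Growth conditions: 96-well plates. Treatment: test compound, 48 hours, 5 concentrations. Analysis: linear interpolation between bracketing concentrations; unreached endpoints set to highest concentration. GI50: concentration for 50% inhibition of growth. The concentration for full growth arrest is given as TGI.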

Legend:
Test in all cases: growth of human tumour cells (NCI), 48 h
K-562 leukemia = tested on: K-562 leukemia
HCT-116 colon = tested on: HCT-116 colon
NCI-H226 lung = tested on: NCI-H226 lung
SNB-75 CNS = tested on: SNB-75 CNS
SK-MEL-5 melanoma = tested on: SK-MEL-5 melanoma
CCRF-CEM leukemia = tested on: CCRF-CEM leukemia
RPMI-8226 leukemia = tested on: RPMI-8226 leukemia
OVCAR-3 ovarian = tested on: OVCAR-3 ovarian
UACC-257 melanoma = tested on: UACC-257 melanoma
ACHN renal = tested on: ACHN renal

Compound	TGI (K-562 leukemia)	TGI (HCT-116 colon)	TGI (NCI-H226 lung)	TGI (SNB-75 CNS)	TGI (SK-MEL-5 melanoma)	TGI (CCRF-CEM leukemia)	TGI (RPMI-8226 leukemia)	TGI (OVCAR-3 ovarian)	TGI (UACC-257 melanoma)	TGI (ACHN renal)	GI50 (K-562 leukemia)	GI50 (HCT-116 colon)	GI50 (NCI-H226 lung)	GI50 (SNB-75 CNS)	GI50 (SK-MEL-5 melanoma)	GI50 (CCRF-CEM leukemia)	GI50 (RPMI-8226 leukemia)	GI50 (OVCAR-3 ovarian)	GI50 (UACC-257 melanoma)	GI50 (ACHN renal)
CCc1nc(N)nc(N)c1-c1ccc2nnn(O)c2c1	> 100 µM	> 100 µM	> 100 µM	> 100 µM	> 100 µM	> 100 µM	> 100 µM	> 100 µM	> 100 µM	> 100 µM										
O=C(NCc1cccnc1)C1COc2cc(-c3cc(=O)c4ccccc4o3)ccc2O1 (stereo not drawn)	> 100 µM	> 100 µM	> 57.1 µM	28.8 µM	> 100 µM	> 100 µM	> 100 µM	> 100 µM	> 100 µM	> 72.9 µM										
Cc1cc(C)n(-c2ccnc3cc(Cl)ccc23)n1	> 100 µM	> 100 µM	> 100 µM	> 100 µM	> 100 µM	> 100 µM	> 100 µM	> 100 µM	> 100 µM	> 100 µM										
CC[C@@H](C(=O)[C@H](C)[C@H](O)[C@@H](C)[C@H]1O[C@H]([C@@H](CC)C(=O)N(CC)CC)CC[C@H]1C)C1O[C@]2(C=C[C@@H](O)[C@]3(CC[C@@](C)([C@H]4CC[C@](O)(CC)[C@H](C)O4)O3)O2)[C@H](C)C[C@@H]1C (stereo partly drawn)	19.4 µM	12.5 µM	10.9 µM	11.1 µM	3.24 µM	13.4 µM	6.15 µM	8.16 µM	12.4 µM	10 µM	3.12 µM	2.9 µM	2.69 µM	1.72 µM	1.76 µM	3.39 µM	2.05 µM	2.64 µM	3.07 µM	2.93 µM
CONC(C)=O	> 100 µM	> 100 µM	> 100 µM	> 100 µM	> 100 µM	> 100 µM	> 100 µM	> 100 µM	> 100 µM	> 100 µM										
CCOC(=O)Nc1nc2ccc(Br)cc2s1	> 50 µM	> 50 µM	> 50 µM	> 50 µM	> 50 µM	> 50 µM	> 50 µM	> 50 µM	> 50 µM	> 50 µM	> 50 µM	> 50 µM	> 50 µM	> 50 µM	> 50 µM	> 50 µM	> 50 µM	> 50 µM	> 50 µM	> 50 µM
C=C1C(=O)O[C@H]2C[C@@H]1CC/C(C)=C/CC/C(C)=C/CC[C@@]2(C)O	50.2 µM	32.8 µM	58.1 µM	> 100 µM	> 100 µM	38.9 µM	43.5 µM	> 100 µM	> 100 µM	> 100 µM	20 µM	17.6 µM	24.4 µM	70.8 µM	37.7 µM	16.5 µM	20.4 µM	51 µM	> 100 µM	55.3 µM
COc1ccc(Cn2cc3c(c2-c2ccccc2)CCc2cnoc2-3)cc1OC	> 100 µM	> 100 µM	> 100 µM	5.26 µM	10.4 µM	> 100 µM	> 100 µM	0.884 µM	> 100 µM	> 100 µM	0.33 µM	0.482 µM	5.75 µM	0.669 µM	0.49 µM	1.78 µM	3.16 µM	0.332 µM	60.4 µM	2.83 µM
COc1cc2ncnc(Nc3cccc(Cl)c3F)c2cc1OC(=O)N1CCN(C)C[C@H]1C	> 63.9 µM	> 56.9 µM	> 75.6 µM	> 50.1 µM	> 56.9 µM	> 100 µM	> 68.2 µM	> 61.8 µM	> 59.2 µM	> 46.3 µM	> 30.7 µM	> 38.5 µM	> 45.9 µM	10.8 µM	> 39.8 µM	> 55.9 µM	> 42.6 µM	> 33.6 µM	> 41.1 µM	0.273 µM
C/C(CC(=O)Nc1cc(C)ccc1C)=N/N=C(N)N	> 100 µM	> 100 µM	> 100 µM	> 100 µM	> 100 µM	> 100 µM	> 100 µM	> 100 µM	> 100 µM	> 100 µM										
C[C@@H](NC(=O)/C(C#N)=C/c1ccc([N+](=O)[O-])cc1)c1ccccc1	14 µM	3.79 µM	3.69 µM	8.33 µM	3.95 µM	> 38.9 µM	5.95 µM	5.65 µM	7.09 µM	3.29 µM	2.75 µM	1.89 µM	1.78 µM	2.19 µM	1.94 µM	2.56 µM	2.23 µM	2.39 µM	2.38 µM	1.76 µM
C#CCN(Cc1nc2cc(C(F)(F)F)ccc2nc1-c1ccccc1)c1ccc(C)cc1	> 100 µM	15.5 µM	33 µM	> 25.2 µM	> 32.4 µM	> 100 µM	> 76.3 µM	16.8 µM	59 µM	> 33.5 µM	33 µM	0.628 µM	8.07 µM		17 µM	> 55.7 µM	> 48.5 µM	3.7 µM	19.5 µM	
Cc1ccc2c(c1)c(Sc1ccc(C(=O)NO)cc1)c1n2CN(C)CC1	11.9 µM	3.54 µM	4.86 µM	3.76 µM	6.27 µM	9.52 µM	9.86 µM	5.63 µM	5.37 µM	8.63 µM	3.17 µM	1.59 µM	1.83 µM	0.96 µM	2.23 µM	1.3 µM	1.1 µM	1.93 µM	1.48 µM	2.68 µM
N=C(N)SCc1c2ccccc2c(CSC(=N)N)c2ccccc12	17.9 µM	16.6 µM	30.6 µM	26.9 µM	20.2 µM	36.1 µM	16.8 µM	30.2 µM	45 µM	18.5 µM	3.51 µM	2.59 µM	6.44 µM	12.2 µM	6.03 µM	4.7 µM	2.56 µM	12.4 µM	23.2 µM	3.99 µM
CC(C)(C)[Si](C)(C)OC1[C@@H](O[Si](C)(C)C(C)(C)C)[C@@H](CNC(=O)NC(=O)CF)O[C@H]1n1cnc2c(NC(=O)Nc3ccccc3)ncnc21 (stereo partly drawn)	> 50 µM	20.5 µM	> 50 µM	> 50 µM	25.6 µM	> 50 µM	> 50 µM	23.4 µM	> 50 µM	38.6 µM	14.7 µM	5.21 µM	5.5 µM	8.45 µM	3.07 µM	11.6 µM	14 µM	11.1 µM	20 µM	8.67 µM
CCOC(=O)c1cc(C(=O)c2cc(OC)c(OC)c(OC)c2)n2c1ccc1ccccc12	> 100 µM	> 100 µM	> 100 µM	0.617 µM	> 100 µM	> 100 µM	> 100 µM	1.26 µM	> 100 µM	> 100 µM	0.0604 µM	0.271 µM	1.23 µM	0.0599 µM	0.434 µM	0.322 µM	0.378 µM	0.151 µM	2.27 µM	0.997 µM
CCCCCCCCCCCCSC1=C(Cl)C(=O)C(OC)=C(OC)C1=O	> 40 µM	11.9 µM	28.3 µM	10.7 µM	3.66 µM	> 100 µM	3.7 µM	18.3 µM	27.6 µM	18.2 µM	0.205 µM	0.508 µM	5.9 µM	1.21 µM	0.49 µM	1.53 µM	0.239 µM	1.39 µM	3.62 µM	1.52 µM
CC1(Br)CC2OC3(Br)C=CC(C)(O)C2(CC1=O)C3(C)C (stereo not drawn)	> 29.8 µM	> 100 µM	> 100 µM	> 100 µM	> 100 µM	> 36 µM	> 100 µM	> 100 µM	> 100 µM	> 100 µM										
O=C1[C@@H]2C(c3ccccc3[N+](=O)[O-])=[N+](c3ccccc3)O[C@@H]2C(=O)N1c1ccc(Cc2ccc(N3C(=O)[C@H]4C(c5ccccc5[N+](=O)[O-])=[N+](c5ccccc5)O[C@H]4C3=O)cc2)cc1	> 100 µM	> 100 µM	> 100 µM	> 100 µM	> 100 µM	> 100 µM	> 100 µM	> 100 µM	> 100 µM	> 100 µM										
COc1cc(/C(=C2/O[C@@H]([C@H]3COC(C)(C)O3)[C@H]3OC(C)(C)O[C@@H]23)c2ccc3ccccc3c2)cc(OC)c1OC	> 100 µM	5.7 µM	60 µM	7.44 µM	15.4 µM	> 100 µM	> 100 µM	5.67 µM	67.9 µM	> 100 µM	4.02 µM	2.51 µM	3.49 µM	2.89 µM	4.07 µM	48.3 µM	33.3 µM	2.39 µM	4.28 µM	4.4 µM
CCC(O)C1Cc2c(C)cc3c(c2O1)C(=O)c1ccccc1C3=O (stereo not drawn)	> 100 µM	> 100 µM	> 100 µM	> 100 µM	> 100 µM	> 100 µM	68 µM	> 100 µM	> 100 µM	> 100 µM										
